The values below come from EP0235942B1, “Alkylenediamine derivatives” (NIPPON CHEMIPHAR CO., LTD., priority 1986, dated 1987).

The subject of data set [1] is Neuromuscular Junction of Crayfish. The experiment in a line: Glutamate blocking effect on neuromuscular junction of crayfish (intracellular recording of the L-glutamate-induced potential). In kind it is cell-based. Conditions: for inhibition at 0.5 µM / inhibition at 20 µM: 5 min; for inhibition at 0.5 µM: as Table 1, but concentration of the pretreatment liquid reduced to 5 x 10⁻⁷ M; for glutamate response after washing: treated sample washed with circulating salt solution for 40 min, then glutamate response measured; for inhibition at 20 µM: inhibition ratio of glutamate potential induced by L-glutamate (1 x 10⁻⁴M), pretreated with test solution (2 x 10⁻⁵ M) for 5 min. On the procedure: (1) Evaluation of glutamate blocking effect was performed according to the methods of Ishida et al [J. Physiol., 298, 301-319(1980)], and Shinozaki et al[Comp. Biochem. Physiol, 70c, 49-58(1981)]. In more detail, the opener muscle of the first walking leg of the crayfish is employed for the examination described below. A neuromusculor sample is fixed in a vessel, and an aqueous salt solution for crayfish [composition: NaCℓ (195 mM), CaCℓ₂ (18mM), KCℓ (5.4 mM), Tris-maleate buffer (pH 7.5, 10 mM), and glucose (11 mM)] was circulated at a constant rate into the vessel. A glass microelectrode filled with 3M KCℓ solution was inserted into the middle portion of the muscle fibre and the change of potential induced by L-glutamate (1 x 10⁻⁴M) was measured intracellularly. The glutamate blocking effect of the compound to be tested was evaluated by determining an inhibition ratio of glutamate potential protreated by the test solution (2 x 10⁻⁵ M) for 5 min.
(2) The glutamate blocking effects of the compound of the present invention as described in Synthesis Example 3 (i.e. 1-[3-[4-methyl-1-(3-methylbutyl)penty]amino]propyl]piperidine) and the known 5-methyl-1-phenyl-2-(3-piperidinopropylamino)hexan-1-ol were evaluated in the same manner as above except that the concentration of the liquid for the pretreatment was reduced from 2 x 10⁻⁵ M to 5 x 10⁻⁷ M. The results are set forth in Table 2.
(§1) (3) The neuromuscular sample which was fixed in the vessel and treated in the above manner was subsequently washed with the salt solution flowing in the vessel under circulation for 40 min. After such washing was complete, the glutamate response was measured on the wahsed neuromuscular sample. […] Accordingly, it was confirmed that the glutamate blocking action of the aninoalcohol derivative was not kept for sufficient period of time. […] The prolongation of the effect of glutamate response shown in using this alkylenediamine compound was also observed on the alkylenediamine derivatives tested in the (1) above, (4) Acute toxicity (LD₅₀, i.v.) was measured on the alkylenediamine drivatives of the invention and the known aminoalcohol derivative.

A short description of data set [2]: Acute toxicity (LD50, i.v.). To be noted: in vivo, iv, read-out: Acute Toxicity (LD₅₀). On the procedure: as §1
In data set [3] the test system is opener muscle of the first walking leg of the crayfish. Conditions: dose of 2 x 10⁻⁴M; glutamic acid (1x10⁻⁴M); cited from earlier work.

A word on the inhibition: it is how much of the control response was suppressed. For `CC(C)CCC(NCCCN1CCCCC1)C(O)c1ccccc1` (stereo not drawn) [5-Methyl-1-phenyl-2-(3-piperidinopropylamino)hexan-1-ol, reference compound], in data set [1], the inhibition at 0.5 µM was found to be 6% and the “glutamate response after washing” value is listed as “almost the same level as shown by the sample prior to the treatment”. Moreover, the LD50 in data set [2] came to 13.6 mg/kg.
In the case of `COc1ccc([C@@H]2Sc3ccccc3N(CCN(C)C)C(=O)[C@@H]2OC(C)=O)cc1` [Diltiazem], the “inhibition of depolarization induced by glutamic acid” value in data set [3] was “approx. 30%”.
Regarding `CC(C)CCC(CNCCCN1CCCCC1)c1ccccc1` (stereo not drawn) [Synthesis Example 1, 1-[3-(5-Methyl-2-phenylhexylamino)propyl]piperidine], the inhibition at 20 µM in data set [1] is 99%.
Regarding `CCCCCC(CCCCC)NCCCN1CCCCC1` [Synthesis Example 2, 1-[3-(1-Pentylhexylamino)propyl]piperidine], the inhibition at 20 µM in data set [1] came to 80%. Also, the LD50 in data set [2] was 23.3 mg/kg.
Take `CC(C)CCC(CCC(C)C)NCCCN1CCCCC1` [Synthesis Example 3, 1-[3-[4-Methyl-1-(3-methylbutyl)pentylamino]propyl]-piperidine]: in data set [1], the inhibition at 0.5 µM came out at 25%, the inhibition at 20 µM worked out at 99% and the “glutamate response after washing” value was “almost no glutamate response”. Besides, in data set [2], the LD50 stood at 29.5 mg/kg.
For `CC(C)CCC(Cc1ccccc1)NCCCN1CCCCC1` (stereo not drawn) [Synthesis Example 4, 1-[3-(1-Benzyl-4-methylpentylamino)propyl]piperidine], in data set [1], the inhibition at 20 µM amounted to 99%.
Take `CC(C)CCOC(CNCCCN1CCCCC1)c1ccccc1` (stereo not drawn) [Synthesis Example 7]: in data set [1], the inhibition at 20 µM is 96%.
`c1ccc(OC(CNCCCN2CCCCC2)c2ccccc2)cc1` (stereo not drawn) [Synthesis Example 8, 1-[3-(2-Phenoxy-2-phenylethylamino)propyl]piperidine]: the inhibition at 20 µM in data set [1] was found to be 94%.
In the case of `CC(C)CC(=O)OCC(Cc1ccccc1)NCCCN1CCCCC1` (stereo not drawn) [Synthesis Example 9, 3-Phenyl-2-(3-piperidinopropylamino)propyl 3-methylbutanoate], the inhibition at 20 µM in data set [1] was 90%.
Regarding `CC(C)CCC(CCc1ccccc1)NCCCN1CCCCC1` (stereo not drawn) [Synthesis Example 10, 1-[3-[4-Methyl-1-(2-phenylethyl)pentylamino]propyl]piperidine], the inhibition at 20 µM in data set [1] is 99%.
`CC(C)CCC(CCNCCCN1CCCCC1)Cc1ccccc1` (stereo not drawn) [Synthesis Example 11, 1-[3-(3-Benzyl-6-methylheptylamino)propyl]piperidine]: the inhibition at 20 µM in data set [1] stood at 96%.
Take `CC(C)CCC(CNCCCN1CCCCC1)Cc1ccccc1` (stereo not drawn) [Synthesis Example 12, 1-[3-(2-Benzyl-5-methylhexylamino)propyl]piperidino]: the inhibition at 20 µM in data set [1] turned out to be 98%.
In the case of `CC(C)CCC(CCCc1ccccc1)NCCCN1CCCCC1` (stereo not drawn) [Synthesis Example 13, 1-[3-[4-Methyl-1-(3-phenylpropyl)pentylamino]propyl]piperidine], the inhibition at 20 µM in data set [1] is 96%.
For `CCC(CC)C(CCC(C)C)NCCCN1CCCCC1` (stereo not drawn) [Synthesis Example 15, 1-[3-[1-(1-Ethylpropyl)-4-methylpentylamino]propyl]piperidine], in data set [1], the inhibition at 20 µM came to 94%.
For `CCCCCC(CCC(C)C)NCCCN1CCCCC1` (stereo not drawn) [Synthesis Example 18, 1-[3-[1-(3-Methylbutyl)hexylamino]propyl]piperidine], the inhibition at 20 µM in data set [1] came out at 97%.
Consider `CC(C)CCC(CCC(C)(C)C)NCCCN1CCCCC1` (stereo not drawn) [Synthesis Example 19, 1-[3-[4,4-Dimethyl-1-(3-methylbutyl]pentylamino]propyl]piperidine], for which the inhibition at 20 µM in data set [1] was 88%.
As for `CC(C)CCC(CCC(C)C)NCCCN1CCCC1` [Synthesis Example 20, 1-[3-[4-methyl-1-(3-methylbutyl)pentylamino]propyl]pyrrolidine], the inhibition at 20 µM in data set [1] was determined as 96%.
On to `CC(C)CCN(CCCN1CCCCC1)CCC(C)C` [Synthesis Example 26, 1-[3-[N,N-Bis-(3-methylbutyl)amino]propyl]piperidine], for which the inhibition at 20 µM in data set [1] turned out to be 91%. Further, in data set [2], the LD50 was found to be 24.8 mg/kg.
For `CC(C)CCN(CCCN1CCCCC1)CCOc1ccccc1` [Synthesis Example 28, 1-[3-[3-Methyl-N-(2-phenoxyethyl)butylamino]propyl]piperidine], in data set [1], the inhibition at 20 µM was found to be 72%.
For `CC(C)CCN(CCCN1CCCCC1)CCc1ccccc1` [Synthesis Example 29, 1-[3-[3-Methyl-N-(2-phenylethyl)butylamino]propyl]piperidine], the inhibition at 20 µM in data set [1] stood at 80%.
Still for that read-out and setting: to `CC(C)CCN(CCCc1ccccc1)CCCN1CCCCC1` [Synthesis Example 30, 1-[3-[3-Methyl-N-(3-phenylpropyl)butylamino]propyl]piperidine] belongs 96%.
The same measure, in the same setting: to `CCCCCCN(CCCN1CCCCC1)CCC(C)C` [Synthesis Example 33, 1-[3-[N-hexyl-N-(3-methylbutyl)amino]propyl]piperidine] belongs 83%; to `CCCCCCCN(CCCN1CCCCC1)CCC(C)C` [Synthesis Example 34, 1-[3-[N-heptyl-N-(3-methylbutyl)amino]propyl]piperidine], 91%; to `CC(C)CCCCN(CCCCN1CCCCC1)CCC(C)C` [Synthesis Example 38, 1-[4-[N-(3-Methylbutyl)-N-(5-methylhexyl)amino]butyl]piperidine], 96%.
Take `CC(C)CCCCN(CCCN1CCCCCC1)CCC(C)C` [Synthesis Example 41, 1-[3-[N-(3-Methylbutyl)-N-(5-methylhexyl)amino]propyl]perhydroazepin]: the inhibition at 20 µM in data set [1] turned out to be 100%.
Take Caroberine: the “inhibition of depolarization induced by glutamic acid” value in data set [3] is reported as “approx. 30%”.
